Measurements taken from patent US20020172670A1 (priority 2000, published 2002).

Tests used:
[1] = test system: Drosophila Schneider (S2) cells; assay: viability of induced S2 cells by Trypan blue exclusion; assay type: cell-based; details: 10-20 μM cadmium, until the end of the induction period
Protocol: Initial experiments were carried out in S2 medium containing 10% bovine serum. Metal concentrations used to induce and time of induction were optimized for dGMII production. […] Cadmium has been reported to be detrimental to the growth of cells. However, at the concentrations used here, the cells continued to grow and maintain greater than 90% viability (as assessed by Trypan blue exclusion) until the end of the induction period. Cells were maintained in the continous presence of cadmium for up to three passages.

dGMII [2] = molecular target: T1, dGMII (Drosophila melanogaster, UniProt Q24451); details: cited from earlier work
T1 construct: The resulting constructs consist of the dGMII catalytic region with a short length of the stalk region; Bip secretion signal (N); made in house; host or cells: Drosophila Schneider S2 cells, stably transfected, protein secreted into the medium
T1 sequence (Q24451 76-1108): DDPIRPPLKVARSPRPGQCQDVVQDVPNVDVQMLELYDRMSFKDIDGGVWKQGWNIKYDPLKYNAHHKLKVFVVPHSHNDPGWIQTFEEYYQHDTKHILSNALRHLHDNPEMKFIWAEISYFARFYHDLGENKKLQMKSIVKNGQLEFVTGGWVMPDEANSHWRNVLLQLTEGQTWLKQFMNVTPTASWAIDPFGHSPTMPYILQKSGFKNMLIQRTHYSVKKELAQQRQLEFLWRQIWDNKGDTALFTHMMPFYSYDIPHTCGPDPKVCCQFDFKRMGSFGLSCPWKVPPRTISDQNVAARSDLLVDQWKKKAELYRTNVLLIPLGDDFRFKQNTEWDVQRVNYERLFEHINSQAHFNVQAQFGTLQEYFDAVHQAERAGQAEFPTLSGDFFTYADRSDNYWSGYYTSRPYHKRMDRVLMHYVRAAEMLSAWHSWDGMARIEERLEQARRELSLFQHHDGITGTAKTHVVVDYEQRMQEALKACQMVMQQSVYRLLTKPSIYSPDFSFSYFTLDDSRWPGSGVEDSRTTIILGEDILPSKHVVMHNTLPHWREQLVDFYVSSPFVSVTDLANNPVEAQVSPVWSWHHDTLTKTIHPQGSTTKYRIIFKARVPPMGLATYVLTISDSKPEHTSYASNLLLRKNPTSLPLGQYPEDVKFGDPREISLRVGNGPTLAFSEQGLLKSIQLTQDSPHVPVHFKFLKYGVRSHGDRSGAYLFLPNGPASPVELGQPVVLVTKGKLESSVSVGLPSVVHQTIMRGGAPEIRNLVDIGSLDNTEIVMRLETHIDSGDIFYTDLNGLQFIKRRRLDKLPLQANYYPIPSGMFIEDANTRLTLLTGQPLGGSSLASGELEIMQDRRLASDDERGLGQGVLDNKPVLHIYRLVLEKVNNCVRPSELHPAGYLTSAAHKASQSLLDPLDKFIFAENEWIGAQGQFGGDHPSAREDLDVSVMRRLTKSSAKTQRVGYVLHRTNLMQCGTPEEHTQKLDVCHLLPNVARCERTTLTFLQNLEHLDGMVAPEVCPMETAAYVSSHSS

mouse GMII = molecular target: T2, mouse GMII (Mus musculus, UniProt P27046); details: Rabouille et al., 1999; cited from earlier work
T2 sequence (P27046 1-1150): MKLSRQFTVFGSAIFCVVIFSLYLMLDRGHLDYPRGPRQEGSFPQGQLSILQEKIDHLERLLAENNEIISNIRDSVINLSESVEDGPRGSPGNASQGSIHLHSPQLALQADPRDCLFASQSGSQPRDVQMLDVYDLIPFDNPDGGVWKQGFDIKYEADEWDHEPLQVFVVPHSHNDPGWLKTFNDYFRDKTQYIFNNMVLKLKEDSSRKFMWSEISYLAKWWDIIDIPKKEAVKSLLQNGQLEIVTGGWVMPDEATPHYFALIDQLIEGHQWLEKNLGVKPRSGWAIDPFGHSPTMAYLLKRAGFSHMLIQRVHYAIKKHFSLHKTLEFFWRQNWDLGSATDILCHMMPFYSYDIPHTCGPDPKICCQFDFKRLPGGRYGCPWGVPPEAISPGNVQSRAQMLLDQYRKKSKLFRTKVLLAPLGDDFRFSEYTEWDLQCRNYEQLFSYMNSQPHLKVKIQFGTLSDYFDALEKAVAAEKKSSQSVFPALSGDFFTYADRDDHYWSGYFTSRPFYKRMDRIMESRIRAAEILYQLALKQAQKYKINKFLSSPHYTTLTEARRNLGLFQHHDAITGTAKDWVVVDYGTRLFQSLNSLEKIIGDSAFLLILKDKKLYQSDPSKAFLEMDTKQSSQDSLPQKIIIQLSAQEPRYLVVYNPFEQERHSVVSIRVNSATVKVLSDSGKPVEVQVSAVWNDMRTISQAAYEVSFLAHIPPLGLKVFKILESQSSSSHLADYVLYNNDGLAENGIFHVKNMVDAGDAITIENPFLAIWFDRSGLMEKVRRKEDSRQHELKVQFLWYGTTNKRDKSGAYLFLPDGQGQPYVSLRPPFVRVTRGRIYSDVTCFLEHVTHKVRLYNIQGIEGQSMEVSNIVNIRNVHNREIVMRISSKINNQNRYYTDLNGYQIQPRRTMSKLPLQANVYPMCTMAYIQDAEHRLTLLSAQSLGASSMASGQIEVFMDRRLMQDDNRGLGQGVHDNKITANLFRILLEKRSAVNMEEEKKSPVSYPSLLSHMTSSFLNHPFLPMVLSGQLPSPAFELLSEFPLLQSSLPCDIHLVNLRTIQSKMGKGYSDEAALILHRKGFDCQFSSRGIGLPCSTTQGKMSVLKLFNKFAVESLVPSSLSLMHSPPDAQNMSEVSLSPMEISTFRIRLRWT

dGMII [3] = molecular target: T3, dGMII (Drosophila melanogaster, UniProt Q24451); assay: binding affinity of inhibitors for dGMII; details: relative to DMNJ; data not shown
T3 sequence (Q24451 1-1108): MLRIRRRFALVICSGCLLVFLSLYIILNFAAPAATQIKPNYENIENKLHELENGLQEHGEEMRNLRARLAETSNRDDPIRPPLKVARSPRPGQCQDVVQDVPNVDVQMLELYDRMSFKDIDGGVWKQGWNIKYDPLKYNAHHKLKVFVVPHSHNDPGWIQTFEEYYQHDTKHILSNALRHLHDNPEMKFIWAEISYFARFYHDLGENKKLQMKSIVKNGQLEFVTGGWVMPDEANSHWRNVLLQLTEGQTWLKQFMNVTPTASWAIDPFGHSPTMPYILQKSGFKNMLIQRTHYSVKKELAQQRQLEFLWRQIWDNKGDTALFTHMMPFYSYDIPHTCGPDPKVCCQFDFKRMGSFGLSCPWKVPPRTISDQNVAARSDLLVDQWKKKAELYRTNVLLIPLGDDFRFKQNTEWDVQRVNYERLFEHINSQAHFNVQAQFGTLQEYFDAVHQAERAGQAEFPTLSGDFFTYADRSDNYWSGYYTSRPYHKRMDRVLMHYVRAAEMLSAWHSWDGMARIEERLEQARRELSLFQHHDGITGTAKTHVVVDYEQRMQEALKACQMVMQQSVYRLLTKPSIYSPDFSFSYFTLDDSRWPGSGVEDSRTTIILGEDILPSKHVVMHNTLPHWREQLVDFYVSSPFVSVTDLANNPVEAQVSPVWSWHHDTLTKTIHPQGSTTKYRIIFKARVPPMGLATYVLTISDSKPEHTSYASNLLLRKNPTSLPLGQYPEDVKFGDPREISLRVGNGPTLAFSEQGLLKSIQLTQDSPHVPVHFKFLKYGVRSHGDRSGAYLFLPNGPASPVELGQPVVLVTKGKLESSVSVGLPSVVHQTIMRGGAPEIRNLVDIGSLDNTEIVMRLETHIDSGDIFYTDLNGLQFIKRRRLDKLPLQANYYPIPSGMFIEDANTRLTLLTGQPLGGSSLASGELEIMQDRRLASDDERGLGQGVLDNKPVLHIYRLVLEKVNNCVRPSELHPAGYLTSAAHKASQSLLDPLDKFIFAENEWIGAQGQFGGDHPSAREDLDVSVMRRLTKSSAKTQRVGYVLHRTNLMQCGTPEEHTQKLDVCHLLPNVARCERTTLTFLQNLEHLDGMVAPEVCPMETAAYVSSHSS

## [Cd] [Cadmium]
[1]
  cell viability (Trypan blue exclusion): greater than 90%

## NC(CO)(CO)CO [Tris, tris(hydroxymethyl)-aminomethane, reference compound]
dGMII [2]; Rabouille et al., 1999
  inhibition of dGMII activity: inhibit

## [Cu+2] [copper]
dGMII [2]; Rabouille et al., 1999
  inactivation of Drosophila GMII: effectively inactivate
dGMII [2]; read-out: inhibition of dGMII by copper, IC50
  IC50: 25 µM
Mouse GMII
  inactivation of mouse GMII: effectively inactivate

## O[C@H]1[C@H]2[C@H](O)CCCN2C[C@H]1O [swainsonine]
dGMII [3]
  binding affinity for the enzyme, compared to the substrate-mimic DMNJ: 10,000 times higher
